Literature values, collected in patent publication US20090317483A1, “Bicomponent Bioadhesive for Biomedical Use” (INSTITUTO OFTALMOLOGICO DE ALICANTE, S.L., priority 2004, published 2009).

Conditions: in vivo

For `C=C(C#N)C(=O)OCCCC` [butyl cyanoacrylate], the “closure of corneal perforations” value is listed as “effective”.
